From patent US20240336638A1, “IMIDAZOLE COMPOUND, AND INTERMEDIATE AND APPLICATION THEREOF” (priority 2021, published 2024)
Where two headings read alike, the source gives them in different places.

Key:
[1] = Pharmacokinetics in SD rats after single IV and PO administration, plasma; assay type: in vivo; details: for Vd / AUC(0-inf) / AUC(0-t) / C0 / Cmax / Tmax / half-life / MRT last / MRT inf / bioavailability: Sprague-Dawley (SD), rat plasma; for Vd: rat, plasma, iv, 1 mg/kg; for MRT last: read-out: MRT(0−t); for MRT inf: read-out: MRT(0−∞); for bioavailability: PO 6 mg/kg vs IV 1 mg/kg
Description: The experimental method of administration by gavage injection in rats: SD rats weighing 180 to 220 g were fasted for 12 hours prior to the experiment, with free access to water. After administration, food and water were withheld for 4 hours. After this 4-hour period, the rats were allowed free access to water, and food was provided after 8 hours. The drugs were administered at a set dose. N=3, blood samples were taken before administration, and 5 minutes, 0.25 hours, 0.5 hours, 0.75 hours, 1 hour, 2 hours, 4 hours, 8 hours, and 24 hours after administration, respectively, and placed into sodium heparin anticoagulant tubes. The tubes were centrifuged for 1 hour at 4° C. and at 8000 rpm for 5 minutes, and the plasma was then separated and stored in centrifuge tubes at −70° C. for analysis. The experimental method of intravenous administration to rats: SD rats weighing 180 to 220 g were fasted for 12 hours prior to the experiment, with free access to water. After administration, food and water were withheld for 4 hours. After this 4-hour period, the rats were allowed free access to water, and food was provided after 8 hours. The drugs were administered at a set dose. N=3, blood samples were taken before administration, and 5 minutes, 0.25 hours, 0.5 hours, 0.75 hours, 1 hour, 2 hours, 4 hours, 8 hours, and 24 hours after administration, respectively, and placed into sodium heparin anticoagulant tubes. The tubes were centrifuged for 1 hour at 4° C. and at 8000 rpm for 5 minutes, and the plasma was then separated and stored in centrifuge tubes at −70° C. for analysis. The plasma concentration-time data were processed using the Phoenix® WinNonlin® 8.0 program to calculate pharmacokinetic parameters. Among them, Cmax and Tmax are measured values, the elimination rate constant k of the tail section of the C-t curve is obtained from the linear regression of LnC-t, and the value of AUC0-4 is calculated by the trapezoidal area method, and the area under the curve from 0 to ∞ time is AUC=AUC0-4+Ct/k. [table]

[2] = Blood-brain barrier (BBB) study in SD rats after single IV and PO administration, brain; assay type: in vivo; details: for Cmax / Tmax / half-life / MRT last / MRT inf: Sprague-Dawley (SD); for Cmax / Tmax / half-life / MRT last / MRT inf / AUC(0−t) / AUC(0−∞): rat brain; for MRT last: read-out: MRT(0−t); for MRT inf: read-out: MRT(0−∞); for T1/2 and AUC(0-∞) in the brain tissue: compared to Ozagrel
Description: Effect Example 3: Pharmacokinetic and blood-brain barrier (BBB) studies of compounds after single intravenous (IV) and oral (PO) administration in SD rats
(§1) The experimental method of administration by gavage injection in rats: SD rats weighing 180 to 220 g were fasted for 12 hours prior to the experiment, with free access to water. After administration, food and water were withheld for 4 hours. After this 4-hour period, the rats were allowed free access to water, and food was provided after 8 hours. The drugs were administered at a set dose. N=3, blood samples were taken before administration, and 5 minutes, 0.25 hours, 0.5 hours, 0.75 hours, 1 hour, 2 hours, 4 hours, 8 hours, and 24 hours after administration, respectively, and placed into sodium heparin anticoagulant tubes. The tubes were centrifuged for 1 hour at 4° C. and at 8000 rpm for 5 minutes, and the plasma was then separated and stored in centrifuge tubes at −70° C. for analysis.
as §1, with “of intravenous” for “of”, “to” for “by gavage injection in”
The plasma concentration-time data were processed using the Phoenix® WinNonlin® 8.0 program to calculate pharmacokinetic parameters.
Among them, Cmax and Tmax are measured values, the elimination rate constant k of the tail section of the C-t curve is obtained from the linear regression of LnC-t, and the value of AUC0-4 is calculated by the trapezoidal area method, and the area under the curve from 0 to ∞ time is AUC=AUC0-4+Ct/k.

| Compound | Vd ([1]; IV 1 mg/kg, read-out: Vss) [L/kg] | Vd ([1]; IV 1 mg/kg, read-out: Vz) [L/kg] | AUC(0-inf) ([1]; IV 1 mg/kg) [ng·h/mL] | AUC(0-t) ([1]; IV 1 mg/kg) [ng·h/mL] | C0 ([1]; IV 1 mg/kg) [ng/mL] | Cmax ([1]; IV 1 mg/kg) [ng/mL] | Tmax ([1]; IV 1 mg/kg) [h] | half-life ([1]; IV 1 mg/kg) [h] | MRT last ([1]; IV 1 mg/kg) [h] | MRT inf ([1]; IV 1 mg/kg) [h] | AUC(0-inf) ([1]; PO 6 mg/kg) [ng·h/mL] | AUC(0-t) ([1]; PO 6 mg/kg) [ng·h/mL] | Cmax ([1]; PO 6 mg/kg) [ng/mL] | Tmax ([1]; PO 6 mg/kg) [h] | half-life ([1]; PO 6 mg/kg) [h] | bioavailability [1] [%] | MRT last ([1]; PO 6 mg/kg) [h] | MRT inf ([1]; PO 6 mg/kg) [h] | Cmax ([2]; IV 1 mg/kg) [ng/g] | Tmax ([2]; IV 1 mg/kg) [h] | also measured |
| --- | --- | --- | --- | --- | --- | --- | --- | --- | --- | --- | --- | --- | --- | --- | --- | --- | --- | --- | --- | --- | --- |
| O=C(O)[C@@H]1C[C@H]1c1ccc(Cn2cnc(F)c2)cc1F [Compound 17, (1R,2R)-2-(2-Fluoro-4-((4-fluoro-1H-imidazol-1-yl)methyl)phenyl)cyclopropane-1-carboxylic acid] | 0.22 | 0.27 | 17600 | 17500 | 7320 | 6840 | 0.083 | 3.24 | 3.8 | 3.91 | 179000 | 178000 | 27200 | 2 | 2.96 | 169 | 4.16 | 4.25 | 84.1 | 0.08 | T1/2 and AUC(0-∞) in the whole body blood circulation system as compared to that of Ozagrel ([1]; intravenously at 1 mg/kg): significantly increased; T1/2 and AUC(0-∞) in the whole body blood circulation system as compared to that of Ozagrel ([1]; orally at 6 mg/kg): significantly increased; half-life ([2]; IV 1 mg/kg): 3.72 h; MRT last ([2]; IV 1 mg/kg): 2.53 h; MRT inf ([2]; IV 1 mg/kg): 4.7 h; Cmax ([2]; PO 6 mg/kg): 323 ng/g; Tmax ([2]; PO 6 mg/kg): 2 h; half-life ([2]; PO 6 mg/kg): 2.82 h; MRT last ([2]; PO 6 mg/kg): 4.53 h; MRT inf ([2]; PO 6 mg/kg): 4.6 h; T1/2 and AUC(0-∞) in the brain tissue ([2]; intravenously at 1 mg/kg): significantly increased; T1/2 and AUC(0-∞) in the brain tissue ([2]; orally at 6 mg/kg): significantly increased; AUC(0−t) ([2]; IV 1 mg/kg): 169.74 ng·h/g; AUC(0−∞) ([2]; IV 1 mg/kg): 212.39 ng·h/g; AUC(0−t) ([2]; PO 6 mg/kg): 2329.55 ng·h/g; AUC(0−∞) ([2]; PO 6 mg/kg): 2336.46 ng·h/g |
| O=C(O)[C@@H]1C[C@H]1c1ccc(Cn2cnc(F)c2)c(Cl)c1 [Compound 18, (1R,2R)-2-(3-Chloro-4-((4-fluoro-1H-imidazol-1-yl)methyl)phenyl)cyclopropane-1-carboxylic acid] | 0.2 | 0.21 | 70700 | 55900 | 6590 | 6340 | 0.083 | 10.4 | 7.73 | 14.3 | 757000 | 576000 | 41400 | 1 | 11.6 | 172 | 8.39 | 16.1 | 75.5 | 0.08 | T1/2 and AUC(0-∞) in the whole body blood circulation system as compared to that of Ozagrel ([1]; intravenously at 1 mg/kg): significantly increased; T1/2 and AUC(0-∞) in the whole body blood circulation system as compared to that of Ozagrel ([1]; orally at 6 mg/kg): significantly increased; half-life ([2]; IV 1 mg/kg): 8.7 h; MRT last ([2]; IV 1 mg/kg): 7.19 h; MRT inf ([2]; IV 1 mg/kg): 11.5 h; Cmax ([2]; PO 6 mg/kg): 460 ng/g; Tmax ([2]; PO 6 mg/kg): 1 h; half-life ([2]; PO 6 mg/kg): 8.36 h; MRT last ([2]; PO 6 mg/kg): 7.84 h; MRT inf ([2]; PO 6 mg/kg): 11.7 h; T1/2 and AUC(0-∞) in the brain tissue ([2]; intravenously at 1 mg/kg): significantly increased; T1/2 and AUC(0-∞) in the brain tissue ([2]; orally at 6 mg/kg): significantly increased; AUC(0−t) ([2]; IV 1 mg/kg): 633.23 ng·h/g; AUC(0−∞) ([2]; IV 1 mg/kg): 741.29 ng·h/g; AUC(0−t) ([2]; PO 6 mg/kg): 6454.78 ng·h/g; AUC(0−∞) ([2]; PO 6 mg/kg): 7477.48 ng·h/g |
| O=C(O)[C@@H]1C[C@H]1c1ccc(Cn2ccnc2)cc1 [Compound 19, (1R,2R)-2-(4-((1H-Imidazol-1-yl)methyl)phenyl)cyclopropane-1-carboxylic acid] | 0.16 | 0.2 | 3250 | 3250 | 6870 | 5490 | 0.083 | 0.44 | 0.5 | 0.51 | 36600 | 36600 | 27300 | 0.25 | 0.72 | 188 | 1.19 | 1.2 | 36 | 0.08 | half-life ([2]; IV 1 mg/kg): 0.38 h; MRT last ([2]; IV 1 mg/kg): 0.35 h; MRT inf ([2]; IV 1 mg/kg): 0.56 h; Cmax ([2]; PO 6 mg/kg): 168 ng/g; Tmax ([2]; PO 6 mg/kg): 0.25 h; half-life ([2]; PO 6 mg/kg): 0.77 h; MRT last ([2]; PO 6 mg/kg): 1.22 h; MRT inf ([2]; PO 6 mg/kg): 1.32 h; AUC(0−t) ([2]; IV 1 mg/kg): 16.44 ng·h/g; AUC(0−∞) ([2]; IV 1 mg/kg): 19.83 ng·h/g; AUC(0−t) ([2]; PO 6 mg/kg): 289.35 ng·h/g; AUC(0−∞) ([2]; PO 6 mg/kg): 296.91 ng·h/g |
